Measurements reported in patent EP0159254A1, “Derivatives of omega-mercaptopropanamide and their salts, their preparation, their use as medicines and compositions containing them” (ROUSSEL-UCLAF, priority 1984, dated 1985).
pIC50: −log10 of the molar value.

biological target: T1, enképhalinase (Rattus norvegicus, UniProt P07861); test: Enkephalinase assay and determination of the effect of inhibitors (hydrolysis of tritiated leucine-enkephalin); assay type: biochemical; conditions: membrane fraction of rat striatum; 20 nanomoles tritiated leucine-enkephalin, 1 mM puromycin, TRIS buffer, 15 min at 25°C; read-out: Inhibition de l'enképhalinase CI 50
T1 construct: L'activité de l'enképhalinase est déterminée dans une fraction membranaire de striatum de rat; from tissue; host or cells: rat striatum, particulate (membrane) fraction
T1 sequence (P07861 1-750): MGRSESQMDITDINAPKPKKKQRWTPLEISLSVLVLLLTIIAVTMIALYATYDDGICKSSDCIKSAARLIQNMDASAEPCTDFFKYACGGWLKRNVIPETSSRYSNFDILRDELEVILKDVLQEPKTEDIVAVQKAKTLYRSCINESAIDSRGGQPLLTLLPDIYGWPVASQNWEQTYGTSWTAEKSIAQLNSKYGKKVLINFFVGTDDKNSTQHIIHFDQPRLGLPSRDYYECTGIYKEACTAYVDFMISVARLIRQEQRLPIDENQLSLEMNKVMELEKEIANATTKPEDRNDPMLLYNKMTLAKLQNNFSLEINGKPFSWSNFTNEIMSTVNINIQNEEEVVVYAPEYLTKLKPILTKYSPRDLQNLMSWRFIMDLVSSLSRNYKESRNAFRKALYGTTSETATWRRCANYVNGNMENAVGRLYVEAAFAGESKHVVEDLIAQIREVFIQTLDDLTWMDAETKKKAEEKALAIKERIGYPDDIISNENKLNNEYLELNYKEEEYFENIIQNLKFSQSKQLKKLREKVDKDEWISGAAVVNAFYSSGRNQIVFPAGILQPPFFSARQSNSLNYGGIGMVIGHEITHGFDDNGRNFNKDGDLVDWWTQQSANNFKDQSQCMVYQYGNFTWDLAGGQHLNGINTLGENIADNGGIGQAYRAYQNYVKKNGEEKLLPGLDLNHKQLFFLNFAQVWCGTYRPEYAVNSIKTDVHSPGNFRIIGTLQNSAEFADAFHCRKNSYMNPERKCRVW
Method: 1) Dosage de l'enképhalinase et détermination de l'effet des inhibiteurs.
L'activité de l'enképhalinase est déterminée dans une fraction membranaire de striatum de rat.
Les striatum sont prélevés sur glace et homogénéisés en tampon TRIS 0.05M pH 7,4 (20 fois le volume). Après une première centrifugation à 1000 g, la fraction particulaire est obtenue à la suite de deux centrifugations de 10 minutes à 20 000 g. Le culot est ensuite mis en suspension dans un tampon TRIS et conservé à 4°C. Le dosage des protéines est effectué selon la méthode au bleu de Comassie.
Après une préincubation de 15 minutes à 25°C, une aliquote de protéines est incubée pendant 15 minutes à 25°C en présence de 20 nanomoles de leucine-enképhaline tritiée (sur le premier acide aminé) préalablement purifiée, d'1 mM de puromycine et du produit à tester en tampon TRIS. La réaction d'hydrolyse est stoppée par addition d'acide chlorhydrique 0,2N et l'incubat subit une déprotéinisation par la chaleur (15 minutes à 95°C).
Les métabolites tritiés obtenus par hydrolyse sont séparés de l'enképhaline par chromatographie sur colonne de porapak Q : ils sont élués avec du tampon TRIS tandis que l'enképhaline est retenue sur la colonne et recueillie ensuite en phase éthanolique.
L'activité des différents produits est exprimée en concentrations inhibitrices 50 %.

Compound | pIC50
O=C(NCCc1ccccc1)C(CS)Cc1ccccc1 (stereo not drawn) [Exemple 8, α -(mercaptométhyl) N-(2-phényl éthyl) benzène propanamide] | 6.00
O=C(NCc1ccncc1)C(CS)Cc1ccccc1 (stereo not drawn) [Exemple 24, Chlorhydrate d'α-(mercaptométhyl) N-/(pyridin-4-yl) méthyl/ benzène propanamide] | 7.10
Chlorhydrate d'α-(mercaptométhyl) N-/(pyridin-3-yl) méthyl/ benzène propanamide [Exemple 22] | 7.10

The remaining lines, values ahead:

pIC50 | Compound
7.00 | O=C(NC1CCCCC1)C(CS)Cc1ccccc1 (stereo not drawn) [Exemple 2, N-cyclohexyl α-(mercaptométhyl) benzène propanamide]
7.00 | O=C(NCc1ccccn1)C(CS)Cc1ccccc1 (stereo not drawn) [Exemple 26, Chlorhydrate d'α-(mercaptométhyl) N-/(Pyridin-2-yl) méthyl/benzène propanamide]
